Reference: patent US20210113492A1, “METHOD FOR INHIBITING PROLIFERATION AND METASTASIS OF CANCER CELLS BY USING NAPHTHOQUINONE DERIVATIVE” (National Tsing Hua University, priority 2019, published 2021)

Biological target: T1, NQO1 (Homo sapiens, UniProt P15559)
T1 construct: endogenous in cells; host or cells: OC3-IV2 (human oral squamous cell carcinoma), cytosolic fraction / lysate supernatant
Assay: NQO1 enzymatic activity assay (substrate reduction with NADH and WST1)
Type: biochemical
Details: cytosolic fractions of OC3-IV2 cells; isoplumbagin 5 μM and 10 μM, menadione 1X and 2X
Protocol: FIG. 4 proves that isoplumbagin is a substrate of NQO1. The cytosolic fractions of OC3-IV2 cells were used for the NQO1 enzymatic activity assay. The NQO1 enzyme activity was calculated by measuring the simultaneous reduction of menadione or isoplumbagin with cofactor NADH and WST1 (a highly sensitive tetrazolium reagent) which leads to increased absorbance at 450 nm. NQO1 activity assay kit (#ab184867) was purchased from Abcam (Cambridge, Mass., USA). OC3-IV2 cells were lysed with 1X extraction buffer containing 1 mM phenylmethylsulfonyl fluoride (PMSF) for 15 min on ice, and then centrifuged at 17,000×g at 4° C. for 20 min. The supernatant was collected and then the protein concentration of each sample was determined by BCA assays (Santa Cruz Biotechnology). Diluted sample and reaction buffer were added into 96-wells plate containing menadione (1X and 2X) or different concentrations of isoplumbagin (5 μM and 10 μM) with cofactor NADH and WST1. The absorbance of reduced WST1 was measured at 450 nm wavelengths by a spectrophotometer. Data from three independent experiments are presented as mean ±SEM (*P<0.05 compared with no substrate, paired Student's t-test).

T1 sequence (P15559 whole entry): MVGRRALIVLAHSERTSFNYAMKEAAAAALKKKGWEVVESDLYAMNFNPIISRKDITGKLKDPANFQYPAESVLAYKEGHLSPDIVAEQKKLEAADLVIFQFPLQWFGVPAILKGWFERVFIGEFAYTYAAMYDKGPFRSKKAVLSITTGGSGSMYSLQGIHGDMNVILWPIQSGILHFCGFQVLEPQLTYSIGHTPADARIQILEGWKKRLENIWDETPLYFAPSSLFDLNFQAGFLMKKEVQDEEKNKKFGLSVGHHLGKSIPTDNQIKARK

substrate of NQO1 (reduction with NADH and WST1, absorbance at 450 nm): substrates of NQO1
SMILES: CC1=CC(=O)c2ccccc2C1=O [menadione, reference compound]
